Test results from patent US20250064846A1, “TREATMENT AND PREVENTION OF TRIGEMINAL NEURALGIA” (THE JOHNS HOPKINS UNIVERSITY, priority 2022, published 2025).
Entries after “also recorded” stand apart in the source; their conditions may differ.

Experiments:
[1] = system: constrictive mouse model of trigeminal neuralgia; assay: Cold allodynia (ice-cold acetone) after constriction of the maxillary nerve; type: in vivo; conditions: i.p. daily, sulforaphane 10 mg/kg; for cold allodynia (analgesic effect): NRF2−/− mice, exemestane 10 mg/kg, JQ-1 40 mg/kg
[2] = system: constrictive mouse model of trigeminal neuralgia; assay: Mechanical allodynia (Von Frey filament) after constriction of the maxillary nerve; type: in vivo; conditions: for mechanical allodynia (sensitivity to crude touch): WT mice, i.p. daily for two days before surgery and daily after behavior testing, sulforaphane, exemestane, letrozole 10 mg/kg, JQ-1 40 mg/kg, ascorbate 100 mg/kg, vs vehicle; for persistence of effects after treatment: daily i.p. dosing just after behavior testing
Procedure: Constriction of the Maxillary Nerve Constriction of the maxillary division of trigeminal nerve was performed as previously described (See Benedetti, A., et al., Biochimica Et Biophysica Acta Bba—Lipids Lipid Metabolism 620, 281-296 (1980) and Vos, B., et al J Neurosci 14, 2708-2723 (1994)). The procedure was performed under direct visualization and control with a surgical microscope. Mice were first anesthetized with ketamine (100 mg/kg, i.p.) and xylazine (12.5 mg/kg, i.p.) and monitored by pinching the skin between the toes with forceps and monitoring for withdrawal. Mice were restrained with adhesive tape to a sterilized polystyrene board. Upon sufficient anesthesia, the scalp was shaved and an anterior to posterior skin incision was made at the midline to expose the nasal and maxillary bones. The maxillary nerve was exposed and carefully dissected free from the surrounding connective tissue. The distal end of the maxillary nerve was then loosely constricted using 8-0 silk sutures as a ligature. The sutures were tied using a slip knot followed by a normal knot, after which any remaining suture was cut free. The incision was then closed with a 4-0 silk suture. In the sham procedure, the left maxillary nerve was exposed but not constricted. Mice were monitored and rehydrated until fully recovered from anesthesia.
Pharmacologic Treatments Mice were dosed with either sulforaphane (10 mg/kg, i.p.), exemestane (10 mg/kg, i.p.), letrozole (10 mg/kg, i.p.), (+)-JQ-1 (40 mg/kg, i.p.), (−)-JQ-1 (40 mg/kg, i.p.), or ascorbate (100 mg/kg, i.p.) as indicated below. Mice were first dosed daily for two days before surgery and again daily just after behavior testing. For local exemestane treatment, exemestane (5 μL, 25 μg total) was applied directly to the maxillary nerve. Mice received a single dose during surgery. Mice were dosed with AM-0902 (30 mg/kg, p.o.). Mice were treated with AM-0902 were dosed 30 min prior to behavior testing. Mice were dosed with tamoxifen (75 mg/kg, i.p.). Mice were dosed once every 24 hrs over 5 consecutive days. Behavioral and molecular tests were only performed 7 or more days after the final tamoxifen injection.
Mechanical Allodynia Mechanical allodynia was assessed in C57BL/6J, TRPA1^+/+, TRPA1^−/−, Keap1(f/f), and Keap1(f/f/CMV-CreER mice using a Von Frey filament as previously outlined (See Benedetti, A., et al., Biochimica Et Biophysica Acta Bba—Lipids Lipid Metabolism 620, 281-296 (1980) and Vos, B., et al J Neurosci 14, 2708-2723 (1994)). Animals were placed individually in transparent plastic boxes and allowed to acclimate to the environment for at least 30 min before testing. After habituation, a 0.04 g force Von Frey filament was used to stimulate the territory innervated by the maxillary nerve, including the vibrissal skin pad. Each mouse's response to the filament was scored from 0-4 on the scale below. Each mouse was scored ten times per day. Changes in mechanical allodynia were considered relative to sham- or vehicle-treated animal controls. Behavior was assessed concomitantly or in a blocked manner with consideration for both genotype and treatment. • 0—no response • 1—non-defensive response to the stimulus (e.g., mouse non-defensively explores filament) • 2—withdrawal response (e.g., mouse turns head away from filament) • 3—escape/attack response (e.g., mouse moves body away from filament and assumes crouching position against the box wall; actively attacks filament by biting and/or grabbing) • 4—asymmetric face grooming (e.g., mouse wipes stimulated facial area in uninterrupted series of at least three face-wash strokes)

[3] = system: constrictive mouse model of trigeminal neuralgia; assay: as above; type: in vivo; conditions: i.p. daily, sulforaphane 10 mg/kg; for mechanical allodynia (analgesic effect): NRF2−/− mice, exemestane 10 mg/kg, JQ-1 40 mg/kg
[4] = system: maxillary nerves; assay: Myelin basic protein (MBP) immunostaining of maxillary nerves; type: in vivo, mouse; conditions: ten days post-surgery; sulforaphane 10, exemestane 10, JQ-1 40 mg/kg, i.p. daily; vs vehicle-treated ligated nerves
Procedure: Histology Maxillary nerves from mice were dissected and fixed in cold 4% formaldehyde (v/v) overnight at 4° C. Tissues were then cryoprotected through a series of 10%, 20%, and 30% sucrose (w/v) gradients for 24 hrs each at 4° C. Tissues were then embedded in Optimal Cutting Temperature compound (OCT) and sectioned in 20 μm intervals with a cryostat, after which the sections were dried onto slides and kept at […]. Sections were then processed for immunohistochemistry.
Immunohistochemistry was performed as previously described (Vasavda C et al., Cell Chem Biol 2019; 26(10):1450-1460.e7, incorporated herein by reference in its entirety). Briefly, sections were post-fixed with 4% parafomaldehyde for 15 min at 25° C. and then permeabilized with 100% methanol for 7 min at −20° C. The slides were then pre-incubated in blocking solution (10% normal goat serum (ThermoFisher Scientific)) for 30 min at 25° C. Sections were incubated overnight at 4° C. with the appropriate primary antibodies in blocking solution. Sections were washed and incubated with the appropriate secondary antibodies diluted 1:250 in blocking solution for 1 h at 25° C. Tissues were then mounted with ProLong Gold Antifade Mountant with DAPI (Invitrogen).
MBP immunostaining: Mice were first dosed daily with either sulforaphane (10 mg/kg, i.p.), exemestane (10 mg/kg, i.p.), JQ-1 (40 mg/kg, i.p.), or the appropriate vehicle for two days before surgical ligation of the maxillary nerve, after which they were dosed every 24 h for 10 days thereafter. MBP immunostaining was performed ten days post-surgery. MBP stains were interpreted by a pathologist to morphologically assess the degree of damage from nerve injury and response to drug treatment. Antibodies: primary antibodies: chicken anti-MBP (1:500); secondary antibodies: goat anti-chicken (Alexa 488, A32931 Invitrogen).

[5] = TRPA1−/− mice, compared with genetic deletion of TRPA1 alone

Compound	cold allodynia (analgesic effect) [1]	mechanical allodynia (sensitivity to crude touch) [2]	mechanical allodynia (sensitivity to crude touch) ([2]; listed as (+)-JQ-1)	persistence of effects after treatment [2] [h]	mechanical allodynia (analgesic effect) [3]	nerve architecture by myelin basic protein staining [4]	duration of analgesic effect ([2]; mouse, in vivo)	mechanical allodynia ([2]; single local treatment, exemestane 25 μg/site applied directly to the maxillary nerve during surgery)	cold allodynia [1, 5]	mechanical allodynia [3, 5]
Cc1sc2c(c1C)C(c1ccc(Cl)cc1)=N[C@@H](CC(=O)OC(C)(C)C)c1nnc(C)n1-2 [JQ-1, (S)-tert-butyl 2-(4-(4-chlorophenyl)-2,3,9-trimethyl-6H-thieno[3,2-f][1,2,4]triazolo[4,3-a][1,4]diazepin-6-yl)acetate]	lowers	much less sensitive	lowered	24	lowers	better preserved nerve architecture with increased density of myelinated axons of varying sizes	–	–	–	–
C=C1C[C@@H]2[C@H](CC[C@]3(C)C(=O)CC[C@@H]23)[C@@]2(C)C=CC(=O)C=C12 [exemestane, 6-methylenandrosta-1,4-diene-3,17-dione]	lose their analgesic effects	much less sensitive; also recorded: lowered	–	24	lose their analgesic effects	better preserved nerve architecture with increased density of myelinated axons of varying sizes	persists over the course of days to weeks	lessened	–	–
C[S+]([O-])CCCCN=C=S (centres unmarked) [sulforaphane, 1-isothiocyanato-4-(methanesulfinyl)butane]	lose their analgesic effects	less sensitive	–	24	lose their analgesic effects	more normal architecture with myelinated axons of varying sizes	–	–	did not lower	did not lower
